Results published in patent US20200375987A1, “METALLO-BETA-LACTAMASE INHIBITORS AND METHODS OF USE THEREOF” (priority 2018, published 2020).

Columns and labels:
NDM-1 = NDM-1 (Klebsiella pneumoniae, UniProt C7C422); experiment: Enzyme activity: determination of IC50, fluorescence assay with CCF2-FA substrate (NDM-1); format: biochemical; details: 1 pM enzyme, 1.25 μM CCF2-FA, 2 hours at 25° C.; read-out: NDM1 IC50
Summary of the method: (§1)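 Enzyme (NDM-1 1 pM, IMP-1 2 pM, VIM-1 30 pM final) and 1.25 μM CCF2-FA incubated with inhibitor (20 to 0.00063 μM) for 2 h at 25° C in 100 mM KH2PO4 pH 7, 0.005% Tween-20, 10 μM ZnSO4. Fluorescence read at ex 405/em 460 nm; IC50 by 4-parameter fit.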

IMP-1 = IMP-1 (Serratia marcescens, UniProt P52699); experiment: Enzyme activity: determination of IC50, fluorescence assay with CCF2-FA substrate (IMP-1); format: biochemical; details: 2 pM enzyme, 1.25 μM CCF2-FA, 2 hours at 25° C.; read-out: IMP1 IC50
Chain of IMP-1 (P52699 19-246, looked up, species assumed): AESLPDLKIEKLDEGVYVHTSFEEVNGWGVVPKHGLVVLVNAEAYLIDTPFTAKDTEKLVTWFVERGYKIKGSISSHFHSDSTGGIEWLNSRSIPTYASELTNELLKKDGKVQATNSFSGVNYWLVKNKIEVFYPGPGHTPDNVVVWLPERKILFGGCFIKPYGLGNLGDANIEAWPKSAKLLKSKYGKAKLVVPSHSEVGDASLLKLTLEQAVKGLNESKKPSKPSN
Summary of the method: as §1

VIM-1 = VIM-1 (Pseudomonas aeruginosa, UniProt A0A0F7KYQ8); experiment: Enzyme activity: determination of IC50, fluorescence assay with CCF2-FA substrate (VIM-1); format: biochemical; details: 30 pM enzyme, 1.25 μM CCF2-FA, 2 hours at 25° C.; read-out: VIM1 IC50
Summary of the method: as §1

VIM-2 = VIM-2 (Escherichia coli, UniProt Q5U7L7); experiment: Enzyme activity: determination of IC50 (VIM-2); format: biochemical; details: read-out: VIM2 IC50
[1] = test system: Escherichia coli expressing NDM-1 (CLB30016); experiment: Antibiotic potentiation activity: synergistic concentration (MITC95) with imipenem; format: cell-based; details: imipenem 1 μg/mL; lowest concentration inhibiting 95% of growth; 35° C., 22-24 hours
Summary of the method: (§2)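 Clinical MBL-expressing strains diluted into 1.1× CAMHB were incubated with compound plus imipenem at 1 μg/mL for 22–24 h at 35 °C, then absorbance was read. MITC95 is the lowest compound concentration giving 95% growth inhibition in the presence of imipenem.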

[2] = test system: Klebsiella pneumoniae expressing VIM-1 (IHMA599644); experiment: as above; format: cell-based; details: imipenem 1 μg/mL; lowest concentration inhibiting 95% of growth; 35° C., 22-24 hours
Summary of the method: as §2

[3] = test system: Serratia marcescens expressing IMP-1 (CL5741); experiment: as above; format: cell-based; details: imipenem 1 μg/mL; lowest concentration inhibiting 95% of growth; 35° C., 22-24 hours
Summary of the method: as §2

[4] = test system: P. aeruginosa MB9798 (efflux WT, IMP-1); experiment: Efflux: concentration of MBL inhibitor restoring susceptibility to imipenem (MITC95), efflux+ strain; format: cell-based, Pseudomonas aeruginosa; details: imipenem at 2 μg/mL in the presence of a class A, C, D serine β-lactamase inhibitor closely related to relebactam
Summary of the method: (§3)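 Isogenic P. aeruginosa PAO1 strains, efflux+ and efflux−, transformed with IMP-1 plasmid, were tested by microbroth MIC with fixed imipenem, usually at CLSI breakpoint, plus fixed class A/C β-lactamase inhibitor against AmpC. MBL inhibitor was serially titrated; the concentration restoring susceptibility was recorded.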

[5] = test system: P. aeruginosa MB9799 (efflux mutant, IMP-1); experiment: Efflux: concentration of MBL inhibitor restoring susceptibility to imipenem (MITC95), efflux− strain; format: cell-based, Pseudomonas aeruginosa; details: imipenem at 2 μg/mL in the presence of a class A, C, D serine β-lactamase inhibitor closely related to relebactam
Summary of the method: as §3

Chain of NDM-1 (C7C422 29-270, looked up, species assumed): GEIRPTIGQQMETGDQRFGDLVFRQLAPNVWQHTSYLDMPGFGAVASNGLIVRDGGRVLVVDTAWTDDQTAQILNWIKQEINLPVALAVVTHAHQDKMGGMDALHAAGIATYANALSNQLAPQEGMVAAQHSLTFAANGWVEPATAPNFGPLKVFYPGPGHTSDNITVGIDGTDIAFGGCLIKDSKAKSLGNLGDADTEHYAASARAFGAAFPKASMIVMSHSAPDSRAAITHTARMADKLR

Row | SMILES | IC50 (NDM-1) | IC50 (IMP-1) | IC50 (VIM-1) | IC50 (VIM-2) | CLB30016 E.coli MITC95 NDM [1] | IHMA599644 K.pneumoniae MITC95 uM VIM [2] | CL5741 S.marcescens MITC95 uM IMP [3] | MB9798 MITC95 P. aeruginosa Efflux WT [4] | MB9799 MITC95 P. aeruginosa Efflux Mutant [5]
1 | NS(=O)(=O)c1c(S(=O)(=O)N[C@@H]2CCNC2)ccc(N2CCc3ncc(O)cc3C2)c1-c1nnn[nH]1 [Example 24, 4-(3-hydroxy-7,8-dihydro-1,6-naphthyridin-6(5H)-yl)-N1-[(3R)-pyrrolidin-3-yl]-3-(1H-tetrazol-5-yl)benzene-1,2-disulfonamide] | 0.28 nM | 1.39 nM | 0.19 nM | 0.74 nM | 0.39 µM | 3.13 µM | 1.56 µM | 25.00 µM | 3.13 µM
2 | NS(=O)(=O)c1c(S(=O)(=O)N[C@@H]2CCNC2)ccc(N2CCc3nc(O)ccc3C2)c1-c1nnn[nH]1 [Example 25, 4-(2-hydroxy-7,8-dihydro-1,6-naphthyridin-6(5H)-yl)-N1-[(3R)-pyrrolidin-3-yl]-3-(1H-tetrazol-5-yl)benzene-1,2-disulfonamide] | 3.09 nM | 6.11 nM | 1.1 nM | 4.79 nM | 0.39 µM | 1.56 µM | 0.78 µM | 6.25 µM | 0.78 µM
3 | NS(=O)(=O)c1c(S(=O)(=O)N[C@@H]2CCNC2)ccc(N2CCc3[nH]nnc3C2)c1-c1nnn[nH]1 [Example 26, N1-[(3R)-pyrrolidin-3-yl]-4-(1,4,6,7-tetrahydro-5H-[1,2,3]triazolo[4,5-c]pyridin-5-yl)-3-(1H-tetrazol-5-yl)benzene-1,2-disulfonamide] | 2.14 nM | 5.97 nM | 1.75 nM | 5.08 nM | 0.78 µM | 3.13 µM | 1.56 µM | 6.25 µM | 0.78 µM
4 | Cc1cc2c(c(C)n1)CCN2c1ccc(S(=O)(=O)N[C@@H]2CCNC2)c(S(N)(=O)=O)c1-c1nnn[nH]1 [Example 27, 4-(4,6-dimethyl-2,3-dihydro-1H-pyrrolo[3,2-c]pyridin-1-yl)-N1-[(3R)-pyrrolidin-3-yl]-3-(1H-tetrazol-5-yl)benzene-1,2-disulfonamide] | 5 nM | 84 nM | 0.14 nM | 1.37 nM | 1.56 µM | 3.13 µM | 6.25 µM | 50.00 µM | 3.13 µM
5 | CNC(=O)c1nsc2c1CCN(c1ccc(S(=O)(=O)N[C@@H]3CCNC3)c(S(N)(=O)=O)c1-c1nnn[nH]1)C2 [Example 28, N-methyl-6-{4-[(3R)-pyrrolidin-3-ylsulfamoyl]-3-sulfamoyl-2-(1H-tetrazol-5-yl)phenyl}-4,5,6,7-tetrahydroisothiazolo[5,4-c]pyridine-3-carboxamide] | 0.21 nM | 0.28 nM | 0.15 nM | 0.48 nM | 0.78 µM | 6.25 µM | 1.56 µM | 12.50 µM | 3.13 µM
6 | Nc1nc2c(s1)CN(c1ccc(S(=O)(=O)N[C@@H]3CCNC3)c(S(N)(=O)=O)c1-c1nnn[nH]1)CC2 [Example 29, 4-(2-amino-6,7-dihydro[1,3]thiazolo[5,4-c]pyridin-5(4H)-yl)-N1-[(3R)-pyrrolidin-3-yl]-3-(1H-tetrazol-5-yl)benzene-1,2-disulfonamide] | 6.28 nM | 7.11 nM | 8.27 nM | 32.8 nM | 1.56 µM | 12.50 µM | 1.56 µM | 25.00 µM | 0.78 µM
7 | NS(=O)(=O)c1c(S(=O)(=O)N[C@@H]2CCNC2)ccc(N2CCc3[nH]ncc3C2)c1-c1nnn[nH]1 [Example 30, N1-[(3R)-pyrrolidin-3-yl]-4-(1,4,6,7-tetrahydro-5H-pyrazolo[4,3-c]pyridin-5-yl)-3-(1H-tetrazol-5-yl)benzene-1,2-disulfonamide] | 0.19 nM | 1.11 nM | 0.25 nM | 0.98 nM | 0.78 µM | 6.25 µM | 1.56 µM | 6.25 µM | 1.56 µM
8 | NS(=O)(=O)c1c(S(=O)(=O)N[C@@H]2CCNC2)ccc(N2CCc3[nH]cnc3C2)c1-c1nnn[nH]1 [Example 31, N1-[(3R)-pyrrolidin-3-yl]-4-(1,4,6,7-tetrahydro-5H-imidazo[4,5-c]pyridin-5-yl)-3-(1H-tetrazol-5-yl)benzene-1,2-disulfonamide] | 1.13 nM | 7 nM | 0.59 nM | 3.3 nM | 0.20 µM | 3.13 µM | 0.78 µM | 3.13 µM | 0.78 µM
9 | NS(=O)(=O)c1c(S(=O)(=O)N[C@@H]2CCNC2)ccc(N2CCc3cccnc32)c1-c1nnn[nH]1 [Example 32, 4-(2,3-dihydro-1H-pyrrolo[2,3-b]pyridin-1-yl)-N1-[(3R)-pyrrolidin-3-yl]-3-(1H-tetrazol-5-yl)benzene-1,2-disulfonamide] | 0.21 nM | 1.14 nM | 0.17 nM | 0.39 nM | 1.56 µM | 3.13 µM | 1.56 µM | 3.13 µM | 1.56 µM
